Square brackets hold non-standard residues; d marks the D form. Peptide text beside a SMILES is read from it. * marks the point of attachment. X1 = C=CCOC(=O)[C@]12CC[C@@H](C(=C)C)[C@@H]1[C@H]1CC[C@@H]3[C@@]4(C)CC[C@H](OC(=O)CCc5cn(CC(=O)*)nn5)C(C)(C)[C@@H]4CC[C@@]3(C)[C@]1(C)CC2; X11 = CCCc1cn(CC(=O)*)nn1; βAla = NCCC(=O)O
Legend:
[1] = Inhibition of HIV1 gp41-induced cell-cell fusion between viral envelope expressing human HL2/3 cells to CD4/CCR5 receptor expressing TZM-bl cells after 6 to 8 hrs by luciferase assay
[2] = Inhibition of HIV1 gp41-induced cell-cell fusion between viral envelope expressing human HL2/3 cells to CD4/CCR5 receptor expressing TZM-bl cells compound preincubated for 1 hr measured after 48 hrs by prime/wash assay
[3] = Inhibition of HIV1 gp41-induced cell-cell fusion between viral envelope expressing human HL2/3 cells to CD4/CCR5 receptor expressing TZM-bl cells compound preincubated for 1 hr followed by wash out measured after 48 hrs by prime/wash assay

| EC50 [1] | Compound | EC50 [2] | EC50 [3] |
| --- | --- | --- | --- |
| 3.9 nM | C=CCOC(=O)[C@]12CC[C@@H](C(=C)C)[C@@H]1[C@H]1CC[C@@H]3[C@@]4(C)CC[C@H](OC(=O)CCc5cn(CC(=O)NCCCC[C@H](NC(=O)CCNC(=O)[C@H](CC(C)C)NC(=O)[C@H](CC(C)C)NC(=O)[C@H](CCC(=O)O)NC(=O)[C@H](CCC(N)=O)NC(=O)[C@H](CCC(=O)O)NC(=O)[C@H](CC(N)=O)NC(=O)[C@H](CCCCN)NC(=O)[C@H](CCC(=O)O)NC(=O)[C@H](CCC(N)=O)NC(=O)[C@H](CCC(N)=O)NC(=O)[C@H](CC(N)=O)NC(=O)[C@H](CCC(N)=O)NC(=O)[C@H](CO)NC(=O)[C@H](CCC(=O)O)NC(=O)[C@H](CCC(=O)O)NC(=O)[C@@H](NC(=O)[C@H](CC(C)C)NC(=O)[C@H](CO)NC(=O)[C@H](Cc6cnc[nH]6)NC(=O)[C@@H](NC(=O)[C@H](CC(C)C)NC(=O)[C@H](CO)NC(=O)[C@@H](NC(=O)[C@H](Cc6ccc(O)cc6)NC(=O)[C@H](CC(N)=O)NC(=O)[C@H](CC(N)=O)NC(C)=O)[C@@H](C)O)[C@@H](C)CC)[C@@H](C)CC)C(N)=O)nn5)C(C)(C)[C@@H]4CC[C@@]3(C)[C@]1(C)CC2 (Ac-NNYTSLIHSLIEESQNQQEKNEQELL[βAla]K(X1)-NH2) | 13 nM | – |
| 3580 nM | CCCc1cn(CC(=O)NCCC(=O)N[C@@H](CC(N)=O)C(=O)N[C@@H](CC(N)=O)C(=O)N[C@@H](Cc2ccc(O)cc2)C(=O)N[C@H](C(=O)N[C@@H](CO)C(=O)N[C@@H](CC(C)C)C(=O)N[C@H](C(=O)N[C@@H](Cc2cnc[nH]2)C(=O)N[C@@H](CO)C(=O)N[C@@H](CC(C)C)C(=O)N[C@H](C(=O)N[C@@H](CCC(=O)O)C(=O)N[C@@H](CCC(=O)O)C(=O)N[C@@H](CO)C(=O)N[C@@H](CCC(N)=O)C(=O)N[C@@H](CC(N)=O)C(=O)N[C@@H](CCC(N)=O)C(=O)N[C@@H](CCC(N)=O)C(=O)N[C@@H](CCC(=O)O)C(=O)N[C@@H](CCCCN)C(=O)N[C@@H](CC(N)=O)C(=O)N[C@@H](CCC(=O)O)C(=O)N[C@@H](CCC(N)=O)C(=O)N[C@@H](CCC(=O)O)C(=O)N[C@@H](CC(C)C)C(=O)N[C@@H](CC(C)C)C(N)=O)[C@@H](C)CC)[C@@H](C)CC)[C@@H](C)O)nn1 ({X11-βAla}-NNYTSLIHSLIEESQNQQEKNEQELL-NH2) | – | – |
| > 100000 nM | C[C@H]1[C@H](C)CC[C@]2(C(=O)O)CC[C@]3(C)C(=CC[C@@H]4[C@@]5(C)CC[C@H](O)C(C)(C)[C@@H]5CC[C@]43C)[C@H]12 [3beta-hydroxyurs-12-en-28-oic acid] | – | – |
| > 100000 nM | CC1(C)CC[C@]2(C(=O)O)CC[C@]3(C)C(=CC[C@@H]4[C@@]5(C)CC[C@H](O)C(C)(C)[C@@H]5CC[C@]43C)[C@@H]2C1 [Oleanolic acid (OA)(Compound 1)] | – | – |

| Compound | EC50 [1] | EC50 [2] | EC50 [3] |
| --- | --- | --- | --- |
| enfuvirtide | 10 nM | 14 nM | 542 nM |

Reference: BindingDB's records for doi:10.1021/jm500763m (Beijing Institute of Pharmacology & Toxicology, 2014)
